The record followed here is ChEMBL document CHEMBL1201862, “PubChem BioAssay data set” (2004).

Common to all, as to assay: DTP human tumour cell line panel, 48 h
The subject of assay [1] is NCI-H226.
The test system of assay [2] is SR.
The test system of assay [3] is U-251.
In assay [4] the test system is NCI-H460.
Assay [5] concerns CCRF-CEM.
In assay [6] the test system is NCI/ADR-RES.
The subject of assay [7] is COLO 205.
In assay [8] the test system is SW-620.
In assay [9] the test system is OVCAR-8.
Assay [10] relates to HOP-62.
Assay [11] has as its system UO-31.
The test system of assay [12] is Malme-3M.
Assay [13] has as its system EKVX.
For assay [14], the system named is OVCAR-4.
The subject of assay [15] is MDA-N.
Assay [16] relates to SF-295.
Assay [17] relates to UACC-257.
In assay [18] the test system is MDA-MB-435.
For assay [19], the system named is 786-0.
In assay [20] the test system is A549.

Molecules are shown by their SMILES.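 Compound exposure: 48 hours, 5 concentrations, 96-well plates. Here, GI50 denotes the concentration required for 50% inhibition of growth.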 Activity calls are given as the source filed them. Cut-off read from the data, not from the text of the source: active = GI50 up to about 1.1 µM and inactive = higher.

By GI50 is commonly meant the concentration that inhibits growth by half. `CN(C)CCn1c(=O)c2ccc3c4c(nn3CCN(C)C)c3ccccc3n(c1=O)c24`: the GI50 is 0.506 µM (active) in assay [1]; < 0.127 µM (active) in assay [2]; 0.196 µM (active) in assay [3]; < 0.122 µM (active) in assay [4]; 0.178 µM (active) in assay [5]; 0.368 µM (active) in assay [6]. The GI50 in assay [7] was 0.201 µM (active); in assay [8], < 0.138 µM (active); in assay [9] it was < 0.01 µM (active); in [10] it was 0.164 µM (active); in [11], 0.271 µM (active); in assay [12], 0.887 µM (active). Besides, the GI50 in [13] was < 0.0113 µM (active); in assay [14], 0.141 µM (active); in [15], 0.248 µM (active); in assay [16], 0.0292 µM (active); in [17], 1.12 µM (inactive); in [18], 0.23 µM (active). The GI50 in [19] is < 0.121 µM (active); in assay [20], 0.134 µM (active).
Consider `Cc1cc2c(=Cc3ccc(N(C)C)cc3)c3ccccc3n2[n+]1C`, for which the GI50 in assay [1] is 1.01 µM (active); in assay [2], 0.0865 µM (active); in [3] it was 0.203 µM (active); in assay [4], 0.393 µM (active); in [5], 0.944 µM (active); in [6], > 66.4 µM (inactive). The GI50 in [7] was 0.164 µM (active); in [8], 1.21 µM (inactive); in [9], 0.313 µM (active); in assay [10], 0.656 µM (active); in [11] it was 3.01 µM (inactive); in [12], 1.08 µM (active). Also, the GI50 in [13] was 1.02 µM (active); in assay [14], 0.641 µM (active); in [15], 0.383 µM (active); in assay [16] it was 1.05 µM (active); in assay [17] it was 0.207 µM (active); in assay [18], 0.424 µM (active). Moreover, the GI50 in assay [19] is 0.607 µM (active); in [20] it was 0.632 µM (active).
Consider `O=C1OC2C(O)COC2(O)C1(O)C(C[N+](=O)[O-])c1ccc(Cl)cc1` (stereo not given), for which the GI50 in [1] was 11.6 µM (inactive); in assay [2], 4.26 µM (inactive); in assay [3], 9.29 µM (inactive); in assay [4] it was 13.7 µM (inactive); in assay [5] it was 3.45 µM (inactive); in assay [6], 21.9 µM (inactive). The GI50 is 3.84 µM (inactive) in assay [7]; 2.71 µM (inactive) in assay [8]; 10.1 µM (inactive) in [9]; 20.6 µM (inactive) in assay [10]; 8.79 µM (inactive) in [11]; 16.3 µM (inactive) in [12]. Also, the GI50 is 23.6 µM (inactive) in assay [13]; 8.45 µM (inactive) in [14]; 2.76 µM (inactive) in [15]; 12.1 µM (inactive) in [16]; 6.68 µM (inactive) in assay [17]; 1.97 µM (inactive) in assay [18]. The figures for the GI50 in [19] and in assay [20] were 1.82 µM (inactive) and 16.5 µM (inactive), respectively.
As for `COC(=O)C1(CCC(=O)N(C)c2ccccc2)NNC2C(=O)N(c3ccccc3)C(=O)C21` (stereo not given), the GI50 in assay [1], in [2], in assay [3], in [4], in assay [5] and in [6] was > 10 µM (inactive) throughout. Also, the GI50 in assay [7], in assay [8], in assay [9], in assay [10], in assay [11] and in assay [12] was > 10 µM (inactive) in each case. The GI50 in assay [13], in assay [14], in assay [15], in assay [16], in assay [17] and in [18] was > 10 µM (inactive) throughout. In addition, the GI50 in assay [19] and in assay [20] was > 10 µM (inactive) throughout.
Take `CN(N=O)C(=N)NC(=O)c1ccccc1`: the GI50 in [1] is > 100 µM (inactive); in assay [2] it was 4.33 µM (inactive); in assay [3], > 100 µM (inactive); in assay [4], 19.3 µM (inactive); in assay [5], > 100 µM (inactive); in assay [6], > 100 µM (inactive). Also, the GI50 in assay [7], in assay [8], in assay [9], in assay [10], in assay [11] and in assay [12] was > 100 µM (inactive) throughout. The GI50 is 61.2 µM (inactive) in assay [13]; > 100 µM (inactive) in [14]; > 100 µM (inactive) in [15]; > 100 µM (inactive) in [16]; > 100 µM (inactive) in [17]; > 100 µM (inactive) in assay [18]. The GI50 in assay [19] and in assay [20] was > 100 µM (inactive) throughout.
As to `Cc1cc(/N=C/c2ccc(Cl)cc2)n(-c2ccccc2)n1`, the GI50 in [1] is 43.6 µM (inactive); in assay [2], 31 µM (inactive); in assay [3] it was > 100 µM (inactive); in assay [4], 43.1 µM (inactive); in assay [5], 26.5 µM (inactive); in assay [6], 40.9 µM (inactive). In addition, the GI50 in assay [7] was 23.9 µM (inactive); in [8] it was 39.2 µM (inactive); in [9], 40.7 µM (inactive); in [10] it was 36 µM (inactive); in [11] it was 59 µM (inactive); in assay [12], 49.3 µM (inactive). The GI50 is 33 µM (inactive) in [13]; 33.4 µM (inactive) in assay [14]; 32.2 µM (inactive) in assay [15]; 30.8 µM (inactive) in assay [16]; 63.5 µM (inactive) in assay [17]; 31.1 µM (inactive) in [18]. Also, the GI50 in assay [19] is 37.3 µM (inactive); in assay [20] it was 45.3 µM (inactive).
For the compound `C=CCNC(=S)N/C=C(\C(=O)OCC)C(=O)C(=O)OCC`, the GI50 in assay [1], in assay [2], in assay [3], in assay [4], in assay [5] and in assay [6] was > 100 µM (inactive) each time. Further, the GI50 in assay [7], in assay [8], in [9], in assay [10], in assay [11] and in [12] was > 100 µM (inactive) each time. Besides, the GI50 in assay [13], in assay [14], in assay [15], in assay [16], in [17] and in assay [18] was > 100 µM (inactive) in each case. Further, the GI50 in assay [19] and in assay [20] was > 100 µM (inactive) each time.
With `C=C1C(=O)O[C@@H]2C[C@@]3(C)CCC[C@H](C)C3=C[C@H]12` [HELENINE], the GI50 in [1] is 15.7 µM (inactive); in [2], 1.19 µM (inactive); in [3], 9.86 µM (inactive); in assay [4], 17 µM (inactive); in assay [5] it was 1.52 µM (inactive); in assay [6], 7.74 µM (inactive). In addition, the GI50 in assay [7] was 1.73 µM (inactive); in assay [8], 3.83 µM (inactive); in assay [9], 6.19 µM (inactive); in [10], 12.3 µM (inactive); in assay [11], 4.95 µM (inactive); in assay [12], 3.95 µM (inactive). The GI50 in [13] is 15 µM (inactive); in [14], 4.49 µM (inactive); in assay [15], 4.66 µM (inactive); in assay [16], 17.5 µM (inactive); in assay [17], 7.21 µM (inactive); in [18], 5.08 µM (inactive). For the same compound, the results for the GI50 in assay [19] and in assay [20] were 3.53 µM (inactive) and 16.1 µM (inactive), respectively.
